US11596615B2, “Compositions and methods for treatment of insulin resistance” (Temple University—Of The Commonwealth System Of Higher …, priority 2016, dated 2023)
Entries after “also recorded” stand apart in the source; their conditions may differ. Structures can show the parent of a compound that is named as a salt.

System: 3T3-L1 adipocytes
Assay: 13C6-glucose uptake in 3T3-L1 adipocytes exposed to 4HNE/H2O2 (Example 7)
Format: cell-based, mouse
Details: 0.1, 1, 10 and 100 μM compound for 2 h, then 4HNE/H2O2 100 μM each 1 h; FIG. 5; dihydrochloride
Protocol: 3T3-L1 Mouse Embryonic Fibroblasts, ATCC® CL-173™ were differentiated to adipocytes using chemically-induced differentiation according to the ATCC guidelines. Differentiated 3T3-L1 Adipocyte 4e^6 cell were incubated overnight in glucose free media (RPMI ref. #11879 Gibco) containing 1% dialyzed fetal bovine serum (ref. #26400 Gibco) at 37° C. Cells were washed with and incubated for 1 h with glucose free media before compound exposure. Cells were incubated with and without increasing concentration (0.1, 1, 10 and 100 μM) of (S)-2-amino-6-((3-aminopropyl)amino)hexanoic acid dihydrochloride (title compound) for 2 h at 37° C., followed by 3 wash steps in glucose free phosphate buffer. […]
Cells were washed with PBS, followed by addition of glucose free DMEM medium containing 20 mM of ^13C6 glucose, 10 mM, 2-fluorodeoxyglucose (2-FDG) and insulin 10 pM (Sigma I5500) incubated for 1 hour at 37° C. 2-FDG is an inhibitor of glucose metabolism, thus preventing glucose breakdown and allowing its accumulation to further be measure and quantified. […]
The detection of the ^13C6 glucose, was carried out using a Waters Xevo™ triple quadrupole tandem mass spectrometer (Waters Corp., Manchester, UK). […] Chromatographic and mass spectrum data were collected and analyzed with Waters MassLynx v4.1 software. […]

NCCCNCCCC[C@H](N)C(=O)O [APL, (S)-2-amino-6-((3-aminopropyl)amino)hexanoic acid dihydrochloride]
glucose uptake impairment induced by 4-HNE and H2O2: able to prevent the glucose uptake impairment induced by 4-HNE and H2O2, in a dose-dependent fashion; also recorded: prevented glucose uptake-impairing effect of 4-HNE and H2O2, in a dose-dependent fashion
